# From PMC6436837 (Antiviral research, 2018)
# Read-outs that look alike come from different tables or passages of the source.
# What was measured:
# [1] = system: EBOV-GFP; type: cell-based, Ebola virus
# [2] = system: EBOV-GFP; experiment: microbe, parasite or virus in culture; type: cell-based, Ebola virus; conditions: for IC50: read-out: IC50 against EBOV-GFP
# [3] = system: A549 cells
# [4] = system: EBOV polymerase complex; type: cell-based, Ebola virus
# [5] = system: VSV-GFP; experiment: microbe, parasite or virus in culture; type: cell-based, vesicular stomatitis virus; conditions: read-out: IC50 against VSV-GFP
# [6] = system: ISRE promoter; type: cell-based, mouse
# [7] = system: ISRE promoter; type: cell-based, human
# [8] = system: ISG54, ISG56, and MX1; type: cell-based, human
# [9] = system: Vero cells
# [10] = system: ZIKV; experiment: microbe, parasite or virus in culture; type: cell-based, Zika virus; conditions: read-out: IC50 against ZIKV
SMILES,Reduction of viral titers in cell culture supernatants [1] [fold],Activity against EBOV-GFP [2],Effect on cell viability [3],Inhibition of EBOV replication [1],IC50 [2] [µM],Activity in EBOV MG assay [4],IC50 [5] [µM],ISRE reporter induction in MEFs [6],Activation of ISRE promoter [7],ISG54 and ISG56 mRNA response [8],Effect on cell viability [9],IC50 [10] [µM],"IC50 ([2]; Zaire ebolavirus, HeLa, 24 h) [µM]","IC50 ([5]; Vesicular stomatitis virus, Vero, 21 h) [µM]","IC50 ([10]; Zika virus, Vero, 48 h) [µM]",IC50 ([4]; read-out: IC50 in EBOV MG assay) [µM]
"O=C(N[C@@H]1CCCc2c1[nH]c1ccc(Cl)cc21)c1ccccn1 [GSK983, reference compound]",> 200,"highly active, even at the lowest concentration tested",no effect on cell viability,,,,,,,,,,,,,
O=C(NC1CCCc2c1[nH]c1ccc(Cl)cc21)c1ccccn1 (stereo not drawn) [SW308],,,,unable to inhibit EBOV virus replication efficiently,1.7,less active,,,,,,,,,,
O=C(NC1CCCc2c1[nH]c1ccc(Cl)cc21)c1ccccn1 (stereo not drawn) [SW835],> 200,,no effect on cell viability,,~0.02,potent activity,0.4,not affected in IFNAR knockout cells,activated the ISRE promoter,responded,no significant effect on cell viability,0.04,,,,
"Cc1c(-c2ccc(-c3ccccc3F)cc2)nc2ccc(F)cc2c1C(=O)O [brequinar, reference compound]",,,,potently inhibited virus growth,,,,not statistically significant compared to DMSO-treated cells,activated the ISRE promoter,responded,,,0.1,0.5,0.3,0.1
